Data: ChEMBL document CHEMBL5579832, “Design, synthesis, and biological evaluation of pyrido[2,3-d]pyrimidin-7(8H)-one derivatives as potent USP1 inhibitors” (Eur J Med Chem, 2024)
Activity calls are given as the source filed them. The rule behind the calls is not given here.

Columns and labels:
[1] = target: T1, Ubiquitin carboxyl-terminal hydrolase 1/WD repeat-containing protein 48 (Homo sapiens) (UniProt O94782+Q8TAF3); assay: Inhibition of USP1/UAF1 in human Olaparib-resistant MDA-MB-436 cell assessed as increase in Ub-PCNA level at 20 nM incubated for 24 hrs by Western blot analysis; assay type: cell-based
[2] = Tmax in male ICR mouse at 10 mg/kg, po administered as single dose and measured after 24 hrs; assay type: ADME, organism-based; conditions: in vivo
[3] = Half life in male ICR mouse at 10 mg/kg, po administered as single dose and measured after 24 hrs; assay type: ADME, organism-based; conditions: in vivo
[4] = target: T1, Ubiquitin carboxyl-terminal hydrolase 1/WD repeat-containing protein 48 (Homo sapiens); assay: Inhibition of USP1/UAF1 in human NCI-H1299 cells assessed as increase in Ub-PCNA levels at 20 nM incubated for 24 hrs by Western blot analysis; assay type: cell-based
[5] = tested on: MDA-MB-436; assay: Induction of cell cycle arrest in human MDA-MB-436 cells assessed as increase in cells at S phase at 1 uM incubated for 24 hrs by PI staining based flow cytometry analysis; assay type: functional
[6] = target: T1, Ubiquitin carboxyl-terminal hydrolase 1/WD repeat-containing protein 48 (Homo sapiens); assay: Non competitive inhibition of USP1/UAF1 complex (unknown origin) using Ub-7-amido-4-methylcoumarin as substrate at 0 to 200 nM incubated for 120 mins by Lineweaver-burk plot analysis; assay type: protein-complex assay; conditions: dose 0-200 nM
[7] = target: T2, Ubiquitin carboxyl-terminal hydrolase 4 (Homo sapiens) (UniProt Q13107); assay: Inhibition of recombinant human 6His-tagged USP4 using diubiquitin as a substrate at 0 to 10 uM preincubated for 15 mins followed by substrate addition and measured after 2 hrs by SDS-PAGE analysis; conditions: dose 0-10 µM, time 135.0 min
T2 sequence (whole entry): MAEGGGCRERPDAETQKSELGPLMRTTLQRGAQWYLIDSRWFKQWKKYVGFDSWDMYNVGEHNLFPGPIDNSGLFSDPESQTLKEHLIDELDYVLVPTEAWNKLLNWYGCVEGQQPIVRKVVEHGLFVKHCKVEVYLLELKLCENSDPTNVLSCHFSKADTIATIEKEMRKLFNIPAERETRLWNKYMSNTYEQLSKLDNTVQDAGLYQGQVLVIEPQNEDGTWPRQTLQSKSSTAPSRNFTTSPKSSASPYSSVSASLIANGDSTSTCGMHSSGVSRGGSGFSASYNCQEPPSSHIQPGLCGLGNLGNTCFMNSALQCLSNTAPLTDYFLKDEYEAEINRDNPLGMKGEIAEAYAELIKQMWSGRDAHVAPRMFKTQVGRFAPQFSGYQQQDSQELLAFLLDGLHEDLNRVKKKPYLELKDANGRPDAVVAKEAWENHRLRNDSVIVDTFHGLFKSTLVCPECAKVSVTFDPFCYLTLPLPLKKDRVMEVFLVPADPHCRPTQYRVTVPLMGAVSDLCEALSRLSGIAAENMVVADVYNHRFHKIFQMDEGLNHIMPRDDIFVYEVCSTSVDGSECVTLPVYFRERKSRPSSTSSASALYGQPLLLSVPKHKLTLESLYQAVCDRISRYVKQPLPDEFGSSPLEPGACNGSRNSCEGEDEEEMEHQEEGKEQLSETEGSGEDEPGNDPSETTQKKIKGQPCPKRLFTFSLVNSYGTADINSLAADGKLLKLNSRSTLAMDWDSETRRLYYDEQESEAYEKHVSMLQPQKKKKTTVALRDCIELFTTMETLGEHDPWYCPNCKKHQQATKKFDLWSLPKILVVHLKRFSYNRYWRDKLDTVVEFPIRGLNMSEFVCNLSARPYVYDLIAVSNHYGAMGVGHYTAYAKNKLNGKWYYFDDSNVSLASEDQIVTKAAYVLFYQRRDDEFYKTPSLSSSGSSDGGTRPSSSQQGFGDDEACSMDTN

[8] = target: Ubiquitin carboxyl-terminal hydrolase 7 (Homo sapiens) (UniProt Q93009); assay: Inhibition of recombinant human 8His-tagged USP7 using diubiquitin as a substrate at 0 to 10 uM preincubated for 15 mins followed by substrate addition and measured after 2 hrs by SDS-PAGE analysis; conditions: dose 0-10 µM, time 135.0 min
Ubiquitin carboxyl-terminal hydrolase 7 (Homo sapiens), sequence (Q93009 whole entry, looked up): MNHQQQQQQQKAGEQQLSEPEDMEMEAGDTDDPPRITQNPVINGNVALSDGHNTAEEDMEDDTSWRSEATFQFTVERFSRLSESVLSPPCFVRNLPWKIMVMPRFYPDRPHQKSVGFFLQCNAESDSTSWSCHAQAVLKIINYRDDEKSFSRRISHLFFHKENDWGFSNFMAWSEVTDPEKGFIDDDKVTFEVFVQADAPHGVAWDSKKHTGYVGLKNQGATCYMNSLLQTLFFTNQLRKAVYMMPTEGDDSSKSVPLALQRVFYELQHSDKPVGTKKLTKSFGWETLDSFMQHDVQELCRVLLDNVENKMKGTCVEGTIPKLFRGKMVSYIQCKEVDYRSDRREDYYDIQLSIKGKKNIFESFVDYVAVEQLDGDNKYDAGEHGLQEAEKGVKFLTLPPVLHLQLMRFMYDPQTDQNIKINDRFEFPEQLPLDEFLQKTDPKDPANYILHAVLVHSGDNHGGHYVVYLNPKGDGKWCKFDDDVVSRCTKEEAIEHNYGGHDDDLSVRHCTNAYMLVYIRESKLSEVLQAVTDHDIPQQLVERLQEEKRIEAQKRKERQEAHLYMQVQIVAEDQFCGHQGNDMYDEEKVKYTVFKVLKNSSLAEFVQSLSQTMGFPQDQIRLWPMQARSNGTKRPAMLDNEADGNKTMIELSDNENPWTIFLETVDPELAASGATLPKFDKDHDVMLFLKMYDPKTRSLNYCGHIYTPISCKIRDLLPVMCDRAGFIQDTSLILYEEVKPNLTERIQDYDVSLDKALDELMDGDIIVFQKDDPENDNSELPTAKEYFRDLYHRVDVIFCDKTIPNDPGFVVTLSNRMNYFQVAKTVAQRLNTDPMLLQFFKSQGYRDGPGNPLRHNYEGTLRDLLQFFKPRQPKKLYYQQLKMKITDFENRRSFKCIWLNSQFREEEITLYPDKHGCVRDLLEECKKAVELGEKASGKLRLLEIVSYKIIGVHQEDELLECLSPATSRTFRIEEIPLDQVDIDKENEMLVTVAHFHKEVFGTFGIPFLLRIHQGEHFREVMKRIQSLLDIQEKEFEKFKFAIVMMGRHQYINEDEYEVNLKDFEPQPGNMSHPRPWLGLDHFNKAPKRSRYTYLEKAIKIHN

[9] = target: T3, Ubiquitin carboxyl-terminal hydrolase 25 (Homo sapiens) (UniProt Q9UHP3); assay: Inhibition of recombinant human 6His-tagged USP25 using diubiquitin as a substrate at 0 to 10 uM preincubated for 15 mins followed by substrate addition and measured after 2 hrs by SDS-PAGE analysis; conditions: dose 0-10 µM, time 135.0 min
T3 sequence (whole entry): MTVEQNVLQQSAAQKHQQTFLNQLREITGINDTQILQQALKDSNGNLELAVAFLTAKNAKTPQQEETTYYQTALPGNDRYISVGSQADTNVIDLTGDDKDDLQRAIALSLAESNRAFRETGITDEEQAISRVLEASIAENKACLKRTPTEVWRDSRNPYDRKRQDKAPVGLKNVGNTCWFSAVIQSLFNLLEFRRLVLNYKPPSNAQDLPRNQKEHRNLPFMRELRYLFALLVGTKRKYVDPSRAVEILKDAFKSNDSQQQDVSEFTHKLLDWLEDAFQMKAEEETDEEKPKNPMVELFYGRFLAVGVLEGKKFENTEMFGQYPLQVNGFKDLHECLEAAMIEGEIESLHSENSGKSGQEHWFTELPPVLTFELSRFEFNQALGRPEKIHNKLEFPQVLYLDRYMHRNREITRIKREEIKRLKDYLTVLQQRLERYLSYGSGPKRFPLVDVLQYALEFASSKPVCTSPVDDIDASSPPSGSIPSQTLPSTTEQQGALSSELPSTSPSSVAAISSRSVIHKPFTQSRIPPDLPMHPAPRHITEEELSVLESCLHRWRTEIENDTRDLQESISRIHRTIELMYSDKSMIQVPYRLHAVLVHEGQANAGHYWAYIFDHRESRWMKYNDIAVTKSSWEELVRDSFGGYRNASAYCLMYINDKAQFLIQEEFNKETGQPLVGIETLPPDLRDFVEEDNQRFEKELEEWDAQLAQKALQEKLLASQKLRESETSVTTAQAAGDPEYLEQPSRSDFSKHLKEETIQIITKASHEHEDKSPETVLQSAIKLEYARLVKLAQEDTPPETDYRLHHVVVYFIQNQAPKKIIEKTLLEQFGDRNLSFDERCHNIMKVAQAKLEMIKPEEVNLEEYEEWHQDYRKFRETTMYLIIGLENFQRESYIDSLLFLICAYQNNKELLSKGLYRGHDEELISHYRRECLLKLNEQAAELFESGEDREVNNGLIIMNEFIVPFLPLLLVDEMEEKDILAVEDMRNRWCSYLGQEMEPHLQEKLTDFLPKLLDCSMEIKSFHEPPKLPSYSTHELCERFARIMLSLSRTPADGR

[10] = tested on: Olaparib-resistant MDA-MB-436; assay: Induction of cell cycle arrest in human Olaparib-resistant MDA-MB-436 cell assessed as increase in cells at S phase at 1 uM incubated for 24 hrs by PI staining based flow cytometry analysis; assay type: functional
[11] = tested on: Olaparib-resistant MDA-MB-436; assay: Induction of cell cycle arrest in human Olaparib-resistant MDA-MB-436 cell assessed as accumulation of cells in S phase at 1 uM incubated for 24 hrs in the presence of olaparib by PI staining based flow cytometry analysis; assay type: functional
[12] = tested on: Olaparib-resistant MDA-MB-436; assay: Induction of cell cycle arrest in human Olaparib-resistant MDA-MB-436 cell assessed as accumulation of cells in G2/M phase at 1 uM incubated for 24 hrs in the presence of olaparib by PI staining based flow cytometry analysis; assay type: functional

inhibition [1]: Active
Tmax [2]: 0.25 h
half-life [3]: 7.61 h
Activity [4]: Active
inhibition [6]: Active
inhibition [7]: inactive
inhibition [8]: inactive
inhibition [9]: inactive
SMILES: COc1ncnc(C2CC2)c1-c1ncc2ccc(=O)n(Cc3ccc(-c4nc(C(F)(F)F)cn4C(C)C)cc3)c2n1
Activity [5]: Active
Activity [10]: Active
Activity [11]: Active
Activity [12]: Active
